# In patent US11021448B2, “1,3-dihydro-1,4-benzodiazepine-2-thiones for the treatment of CNS related diseases” (priority 2016, dated 2021):
# Where two headings read alike, the source gives them in different places.
# Tests used:
# hM1 = biological target: T1, hM1 (Homo sapiens, UniProt P11229); experiment: FLIPR intracellular calcium assay for modulator activity at the muscarinic M1 receptor in CHO human M1 cells; assay type: cell-based
# T1 construct: expressed in transfected cells; host or cells: CHO
# T1 sequence (P11229 1-460): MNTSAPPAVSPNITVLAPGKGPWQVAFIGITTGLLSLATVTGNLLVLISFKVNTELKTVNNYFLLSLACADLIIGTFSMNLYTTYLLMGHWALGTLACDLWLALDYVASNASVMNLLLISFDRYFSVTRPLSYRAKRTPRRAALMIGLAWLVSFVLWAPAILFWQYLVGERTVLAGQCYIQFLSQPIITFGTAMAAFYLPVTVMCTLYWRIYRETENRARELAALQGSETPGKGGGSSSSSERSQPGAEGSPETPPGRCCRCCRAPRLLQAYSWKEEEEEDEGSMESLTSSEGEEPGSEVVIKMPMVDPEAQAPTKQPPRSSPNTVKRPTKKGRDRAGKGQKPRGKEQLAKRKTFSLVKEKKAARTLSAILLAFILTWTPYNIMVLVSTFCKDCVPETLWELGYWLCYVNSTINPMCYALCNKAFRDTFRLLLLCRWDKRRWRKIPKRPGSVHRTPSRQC
# Description: The assay study the effect of several concentrations of test compounds on basal or acetylcholine-stimulated Ca^2+ levels using FLIPR.
# The cell plate and the diluted compounds (1% DMSO final concentration) are placed on the platform of the FLIPR and the door closed. A signal test to check background fluorescence and basal fluorescence signal is performed. Laser intensity is adjusted if necessary. Two minutes preincubation with the diluted test compounds is provide to determine any agonist activity on the M1 receptor by comparison to 30 nM Acetylcholine control. In order to determine any modulator activity the diluted compounds were added to cells and after two minutes preincubation, the EC20 of acetylcholine is added followed by another two minutes preincubation before the measurement of intracellular Ca^2+ with a FLIPR (Molecular Devices).
# GABA A = experiment: Oocyte EP; assay type: cell-based; details: at 1 μM
# GABA-A alpha5 (α5β3γ2) = biological target: T2, GABA-A alpha5 (α5β3γ2) (Homo sapiens, UniProt P18507+P31644); experiment: GABA A radioligand binding assay, competition for [3H]flumazenil; details: [3H]flumazenil 1 nM, HEK293 membranes
# T2 construct: expressed in transfected cells; host or cells: HEK293 (transient transfection; membranes)
# Description: The ability of compounds present invention to bind to GABA A receptor subtypes was determined by competition for [^3H]flumazenil (85 Ci/mmol; Roche) binding to HEK293 cells expressing human (transiently transfected) receptors of composition α1β2γ2, and α5β3γ2.
# Membrane preparation Cell pellets were suspended in Krebs-tris buffer (5 mM KCl, 1.25 mM CaCl2), 1.25 mM MgCl2, 120 mM NaCl, 15 mM Tris; pH 7.5; binding assay buffer), homogenized by polytron for ca. 20 sec on ice and centrifuged for 60 min at 4° C. (50000 g; Sorvall, rotor: SM24=20000 rpm). The cell pellets were resuspended in Krebs-tris buffer and homogenized by polytron for ca. 15 sec on ice. Protein was measured (Bradford method, Bio-Rad) and aliquots of 1 mL were prepared and stored at −80° C.
# Radioligand binding assays were carried out in a volume of 200 uL (96-well plates) which contained 100 μL of cell membranes, [3H]flumazenil at a concentration of 1 nM for a1, a2, a3 subunits and 1 nM for a5 subunits and the test compound in the range of 3.16 μM to 0.1 μM. Nonspecific binding was defined by 10^−5 M diazepam and typically represented less than 5% of the total binding. […] After drying, filter-retained radioactivity was detected by liquid scintillation counting.
# Ki values were calculated using Excel-Fit (Microsoft) and are the means of two determinations.
compound,measurement,setting,value
"CC(=O)OC1C=C(c2ccccc2F)c2cc(Cl)ccc2NC1=S (centres unmarked) [Example 14, [7-chloro-5-(2-fluorophenyl)-2-thioxo-1,3-dihydro-1-benzazepin-3-yl]acetate]",IC50,"hM1; CHO human M1, with EC20 of acetylcholine, FLIPR, read-out: IC50 value hM1 (converted)",0.649 µM
same,melting point,,214 to 215 °C
"CC(C)[C@@H]1N=C(c2ccccc2F)c2cc(Cl)ccc2NC1=S [Example 5, (3S)-7-chloro-5-(2-fluorophenyl)-3-propan-2-yl-1,3-dihydro-1,4-benzodiazepine-2-thione]",IC50,hM1,0.08 µM
same,Oocyte EP effect,GABA A,no effect
same,Ki,"GABA-A alpha5 (α5β3γ2); GABA-A alpha 5 (second value, Ki implied), second value",> 36 µM
same,Ki,GABA-A alpha5 (α5β3γ2); GABA-A alpha5: Ki,> 24 µM
"CC(C)[C@@H]1N=C(c2cccc(Cl)c2)c2cc(Cl)ccc2NC1=S [Example 22, (3S)-7-chloro-5-(3-chlorophenyl)-3-isopropyl-1,3-dihydro-1,4-benzodiazepine-2-thione]",IC50,hM1,0.172 µM
"S=C1Nc2ccc(Cl)cc2C(c2ccccc2)=N[C@H]1Cc1ccccc1 (single isomer, unassigned) [Example 30]",IC50,hM1,0.251 µM
